ChEMBL document CHEMBL1201862, “PubChem BioAssay data set” (2004)
Active and inactive are the calls of the source.

Legend:
[1] = target: T1, Estrogen receptor (Homo sapiens, UniProt P03372);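 note: potency for inhibiting coactivator peptide recruitment to the receptor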
T1 sequence (P03372 whole entry): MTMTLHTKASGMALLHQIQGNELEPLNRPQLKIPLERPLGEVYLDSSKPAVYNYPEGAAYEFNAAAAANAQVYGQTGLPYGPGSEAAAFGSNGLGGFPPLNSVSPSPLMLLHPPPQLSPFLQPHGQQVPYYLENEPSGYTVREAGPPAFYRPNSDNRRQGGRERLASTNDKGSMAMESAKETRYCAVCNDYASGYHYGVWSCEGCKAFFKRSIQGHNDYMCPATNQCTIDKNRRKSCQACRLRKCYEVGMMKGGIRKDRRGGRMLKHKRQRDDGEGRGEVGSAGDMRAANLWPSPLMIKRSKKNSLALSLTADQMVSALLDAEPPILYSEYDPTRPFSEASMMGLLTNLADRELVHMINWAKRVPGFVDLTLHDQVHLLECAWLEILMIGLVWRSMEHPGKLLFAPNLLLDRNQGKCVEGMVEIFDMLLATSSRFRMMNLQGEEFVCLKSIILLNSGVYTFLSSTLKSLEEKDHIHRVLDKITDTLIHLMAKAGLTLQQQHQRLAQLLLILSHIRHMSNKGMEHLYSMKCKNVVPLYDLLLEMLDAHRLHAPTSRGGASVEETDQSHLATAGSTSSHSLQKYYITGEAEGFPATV

[2] = HEp-2 cell cytotoxicity, dose response, cytotoxicity control for RSV inhibitor project, HTS (AID 2410); assay type: functional; conditions: human respiratory syncytial virus
[3] = growth suppression of PTEN-null colon cells, dose response, cell-based, HCT116 PTEN knockout (AID 1047); assay type: functional;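 note: HCT116 colon tumor cells with PTEN knocked out; cells exposed to compound for 60 hours before readout; potency for loss of cell viability measured by luminescence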
[4] = growth suppression of beta-catenin-knockout colon cells, dose response, cell-based, HCT116, human colon tumor (AID 1045); assay type: functional;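 note: HCT116 colon tumor cells with beta catenin knocked out; cells exposed to compound for 60 hours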
[5] = target: X-box-binding protein 1 (Homo sapiens, UniProt P17861); assay type: functional, Cricetulus griseus;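 note: confirmatory dose-response counter-screen serving a CHOP assay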
Chain of X-box-binding protein 1 (P17861 whole entry): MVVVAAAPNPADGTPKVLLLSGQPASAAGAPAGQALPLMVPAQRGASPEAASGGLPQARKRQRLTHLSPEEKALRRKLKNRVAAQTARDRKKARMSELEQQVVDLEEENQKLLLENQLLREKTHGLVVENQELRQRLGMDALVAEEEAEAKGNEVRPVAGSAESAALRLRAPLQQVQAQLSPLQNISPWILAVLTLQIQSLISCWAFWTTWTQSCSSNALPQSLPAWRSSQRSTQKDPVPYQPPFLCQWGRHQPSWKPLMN

[6] = system: INS1; experiment: beta cell apoptosis inhibitors, cytokine rescue, dose response, luminescence, retest (AID 449756); assay type: functional, cell-based; conditions: Rattus norvegicus;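 note: cell death triggered by IL-1 beta plus TNF-alpha plus IFN-gamma mixture; protective hits raise ATP signal compared with cytokine alone wells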
[7] = target: Tumor necrosis factor (Homo sapiens, UniProt P01375); experiment: TNFa-triggered NF-kB activation inhibitors, SAR follow-up, cell-based, revised (AID 2337); assay type: functional
Chain of Tumor necrosis factor (P01375 whole entry, the tested form may be a part): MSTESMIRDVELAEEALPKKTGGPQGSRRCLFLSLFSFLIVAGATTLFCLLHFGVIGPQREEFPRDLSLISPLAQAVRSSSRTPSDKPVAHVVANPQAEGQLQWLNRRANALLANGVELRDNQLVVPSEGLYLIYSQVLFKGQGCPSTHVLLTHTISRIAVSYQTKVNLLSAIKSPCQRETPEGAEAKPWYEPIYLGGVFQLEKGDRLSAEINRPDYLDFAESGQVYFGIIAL

[8] = target: T2, Nucleotide-binding oligomerization domain-containing protein 1 (Homo sapiens, UniProt Q9Y239); experiment: NOD1 signaling inhibitors, SAR follow-up, revised (AID 2333); assay type: functional
T2 sequence (Q9Y239 whole entry): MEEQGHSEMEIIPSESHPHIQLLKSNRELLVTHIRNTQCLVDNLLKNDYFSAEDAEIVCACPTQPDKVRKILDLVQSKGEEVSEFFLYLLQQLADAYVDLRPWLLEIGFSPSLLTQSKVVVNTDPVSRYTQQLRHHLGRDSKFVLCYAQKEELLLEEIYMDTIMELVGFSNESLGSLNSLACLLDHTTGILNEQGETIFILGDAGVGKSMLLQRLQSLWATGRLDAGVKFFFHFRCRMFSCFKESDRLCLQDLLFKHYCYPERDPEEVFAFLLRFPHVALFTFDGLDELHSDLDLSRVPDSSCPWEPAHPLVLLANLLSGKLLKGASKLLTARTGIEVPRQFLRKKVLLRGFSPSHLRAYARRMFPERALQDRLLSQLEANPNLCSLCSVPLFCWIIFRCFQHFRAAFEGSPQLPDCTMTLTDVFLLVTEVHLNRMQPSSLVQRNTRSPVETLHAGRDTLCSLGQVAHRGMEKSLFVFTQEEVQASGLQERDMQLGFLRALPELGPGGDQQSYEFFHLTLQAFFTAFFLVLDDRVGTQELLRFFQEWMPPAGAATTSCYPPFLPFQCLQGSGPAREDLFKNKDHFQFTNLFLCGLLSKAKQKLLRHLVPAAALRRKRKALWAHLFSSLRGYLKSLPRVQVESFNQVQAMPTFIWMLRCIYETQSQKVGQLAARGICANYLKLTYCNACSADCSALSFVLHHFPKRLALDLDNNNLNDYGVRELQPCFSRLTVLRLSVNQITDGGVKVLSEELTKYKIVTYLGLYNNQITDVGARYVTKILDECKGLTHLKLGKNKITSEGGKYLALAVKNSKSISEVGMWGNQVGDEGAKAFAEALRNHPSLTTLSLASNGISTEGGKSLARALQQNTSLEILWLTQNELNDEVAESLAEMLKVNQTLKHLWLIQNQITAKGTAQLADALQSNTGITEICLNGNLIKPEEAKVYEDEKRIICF

[9] = target: Nucleotide-binding oligomerization domain-containing protein 2 (Homo sapiens, UniProt Q9HC29); experiment: PubChem AID 2334; assay type: functional
Chain of Nucleotide-binding oligomerization domain-containing protein 2 (Q9HC29 whole entry, the tested form may be a part): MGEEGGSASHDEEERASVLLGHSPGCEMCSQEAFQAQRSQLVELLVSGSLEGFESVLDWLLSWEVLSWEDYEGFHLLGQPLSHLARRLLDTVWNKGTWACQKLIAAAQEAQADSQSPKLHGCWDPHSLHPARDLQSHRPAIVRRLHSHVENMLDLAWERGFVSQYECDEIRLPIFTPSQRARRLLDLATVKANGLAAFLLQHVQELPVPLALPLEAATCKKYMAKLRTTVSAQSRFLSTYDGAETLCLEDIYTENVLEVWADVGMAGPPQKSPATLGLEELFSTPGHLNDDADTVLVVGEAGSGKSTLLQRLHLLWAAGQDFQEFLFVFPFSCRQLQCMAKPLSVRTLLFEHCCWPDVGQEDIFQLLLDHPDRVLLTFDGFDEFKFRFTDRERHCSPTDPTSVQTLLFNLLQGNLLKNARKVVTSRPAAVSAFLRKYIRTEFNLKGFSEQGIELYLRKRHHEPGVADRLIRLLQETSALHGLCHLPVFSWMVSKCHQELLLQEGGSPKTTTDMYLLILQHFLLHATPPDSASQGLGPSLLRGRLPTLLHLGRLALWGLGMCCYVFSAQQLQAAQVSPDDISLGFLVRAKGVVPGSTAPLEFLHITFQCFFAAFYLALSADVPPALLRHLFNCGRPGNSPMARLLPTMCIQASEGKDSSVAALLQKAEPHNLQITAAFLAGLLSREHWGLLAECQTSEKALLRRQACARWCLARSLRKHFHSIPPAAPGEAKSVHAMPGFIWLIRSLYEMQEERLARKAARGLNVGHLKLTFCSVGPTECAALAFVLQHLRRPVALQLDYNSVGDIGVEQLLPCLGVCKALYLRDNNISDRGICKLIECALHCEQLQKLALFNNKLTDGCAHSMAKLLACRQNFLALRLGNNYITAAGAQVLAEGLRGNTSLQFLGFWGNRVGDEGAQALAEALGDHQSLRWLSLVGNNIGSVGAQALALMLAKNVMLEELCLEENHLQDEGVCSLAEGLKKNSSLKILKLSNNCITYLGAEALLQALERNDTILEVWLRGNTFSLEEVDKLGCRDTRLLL

[10] = system: HEK293; experiment: cells; conditions: Homo sapiens;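 note: cells exposed to compound for 14 hours overnight before viability readout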
[11] = target: Aspartyl aminopeptidase (Plasmodium falciparum 3D7, UniProt Q8I2J3)
Chain of Aspartyl aminopeptidase (Q8I2J3 whole entry): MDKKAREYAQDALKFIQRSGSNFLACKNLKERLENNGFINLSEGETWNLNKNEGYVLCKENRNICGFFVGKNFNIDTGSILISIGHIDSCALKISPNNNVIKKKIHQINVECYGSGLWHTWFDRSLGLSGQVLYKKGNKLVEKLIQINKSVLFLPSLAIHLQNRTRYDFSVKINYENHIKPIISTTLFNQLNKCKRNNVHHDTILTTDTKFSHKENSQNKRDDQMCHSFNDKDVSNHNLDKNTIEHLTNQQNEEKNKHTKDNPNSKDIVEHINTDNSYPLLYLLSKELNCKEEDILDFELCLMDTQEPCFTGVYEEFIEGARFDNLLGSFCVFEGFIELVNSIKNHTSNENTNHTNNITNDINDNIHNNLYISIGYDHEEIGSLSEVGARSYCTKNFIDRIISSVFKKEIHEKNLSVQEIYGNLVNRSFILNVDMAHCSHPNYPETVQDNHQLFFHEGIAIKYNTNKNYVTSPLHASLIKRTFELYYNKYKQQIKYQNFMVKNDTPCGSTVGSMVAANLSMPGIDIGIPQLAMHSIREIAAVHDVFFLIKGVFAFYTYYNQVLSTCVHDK

[12] = target: Procathepsin L (Homo sapiens, UniProt P07711)
Chain of Procathepsin L (P07711 whole entry, the tested form may be a part): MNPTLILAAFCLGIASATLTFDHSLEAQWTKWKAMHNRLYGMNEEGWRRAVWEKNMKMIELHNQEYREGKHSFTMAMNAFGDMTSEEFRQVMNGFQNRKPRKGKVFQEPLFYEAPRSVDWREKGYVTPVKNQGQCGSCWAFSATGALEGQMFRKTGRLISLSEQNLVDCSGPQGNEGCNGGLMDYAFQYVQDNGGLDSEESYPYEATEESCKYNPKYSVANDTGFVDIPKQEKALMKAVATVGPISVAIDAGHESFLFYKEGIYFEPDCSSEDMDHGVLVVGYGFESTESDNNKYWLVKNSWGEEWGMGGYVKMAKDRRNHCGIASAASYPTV

[13] = target: T3, RNA-binding protein pos-1 (Caenorhabditis elegans, UniProt G5EF15); experiment: inhibitors of POS-1/mex-3 RNA binding, dose response, biochemical, fluorescence polarization (AID 1964);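 note: purified POS-1 fused to maltose binding protein made in E. coli; potency of compounds blocking POS-1 binding to fluorescent RNA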
T3 sequence (G5EF15 whole entry): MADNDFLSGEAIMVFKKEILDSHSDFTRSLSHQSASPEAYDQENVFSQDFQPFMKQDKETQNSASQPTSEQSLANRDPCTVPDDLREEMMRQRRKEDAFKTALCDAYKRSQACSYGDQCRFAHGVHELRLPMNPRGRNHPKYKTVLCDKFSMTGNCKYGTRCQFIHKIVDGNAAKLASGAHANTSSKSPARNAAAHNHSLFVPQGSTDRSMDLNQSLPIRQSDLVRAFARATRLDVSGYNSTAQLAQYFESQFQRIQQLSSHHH

[14] = target: T4, Zinc finger protein mex-5 (Caenorhabditis elegans, UniProt Q9XUB2); experiment: MEX-5/TCR-2 RNA interaction inhibitors, dose response, biochemical, C. elegans, fluorescence polarization (AID 1960)
T4 sequence (Q9XUB2 whole entry): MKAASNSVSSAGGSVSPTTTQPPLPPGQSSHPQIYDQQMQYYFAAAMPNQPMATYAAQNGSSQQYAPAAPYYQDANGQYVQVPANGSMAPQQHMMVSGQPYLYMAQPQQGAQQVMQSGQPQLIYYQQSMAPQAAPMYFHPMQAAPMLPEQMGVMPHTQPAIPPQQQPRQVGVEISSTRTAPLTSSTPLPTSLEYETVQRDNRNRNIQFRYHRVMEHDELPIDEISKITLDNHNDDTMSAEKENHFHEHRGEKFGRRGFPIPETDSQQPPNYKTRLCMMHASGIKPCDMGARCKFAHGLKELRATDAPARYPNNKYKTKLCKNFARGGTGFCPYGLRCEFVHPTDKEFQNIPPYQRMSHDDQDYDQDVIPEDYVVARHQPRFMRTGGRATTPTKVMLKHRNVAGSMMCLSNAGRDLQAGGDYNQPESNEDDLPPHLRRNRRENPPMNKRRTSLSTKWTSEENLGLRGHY

[15] = target: T5, Estrogen receptor beta (Homo sapiens, UniProt Q92731); experiment: ERβ–SRC-3 coactivator interaction inhibitors, confirmation, orthogonal assay, biochemical, ELISA, streptavidin-HRP readout (AID 1060)
T5 sequence (Q92731 whole entry): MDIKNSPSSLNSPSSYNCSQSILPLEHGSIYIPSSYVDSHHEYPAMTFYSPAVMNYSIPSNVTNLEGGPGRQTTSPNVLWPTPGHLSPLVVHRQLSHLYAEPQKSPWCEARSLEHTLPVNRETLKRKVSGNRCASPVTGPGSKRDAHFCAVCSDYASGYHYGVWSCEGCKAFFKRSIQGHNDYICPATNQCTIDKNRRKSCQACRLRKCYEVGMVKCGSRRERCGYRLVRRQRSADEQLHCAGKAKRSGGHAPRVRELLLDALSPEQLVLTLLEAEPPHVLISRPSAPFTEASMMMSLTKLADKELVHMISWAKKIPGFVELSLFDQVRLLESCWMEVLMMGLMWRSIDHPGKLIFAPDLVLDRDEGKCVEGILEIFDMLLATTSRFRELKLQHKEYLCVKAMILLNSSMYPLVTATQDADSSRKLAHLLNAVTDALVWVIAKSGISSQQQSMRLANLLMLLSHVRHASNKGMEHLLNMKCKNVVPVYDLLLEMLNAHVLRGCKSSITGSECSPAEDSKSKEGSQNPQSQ

[16] = target: Induced myeloid leukemia cell differentiation protein Mcl-1 (Homo sapiens, UniProt Q07820); assay type: functional
Chain of Induced myeloid leukemia cell differentiation protein Mcl-1 (Q07820 whole entry): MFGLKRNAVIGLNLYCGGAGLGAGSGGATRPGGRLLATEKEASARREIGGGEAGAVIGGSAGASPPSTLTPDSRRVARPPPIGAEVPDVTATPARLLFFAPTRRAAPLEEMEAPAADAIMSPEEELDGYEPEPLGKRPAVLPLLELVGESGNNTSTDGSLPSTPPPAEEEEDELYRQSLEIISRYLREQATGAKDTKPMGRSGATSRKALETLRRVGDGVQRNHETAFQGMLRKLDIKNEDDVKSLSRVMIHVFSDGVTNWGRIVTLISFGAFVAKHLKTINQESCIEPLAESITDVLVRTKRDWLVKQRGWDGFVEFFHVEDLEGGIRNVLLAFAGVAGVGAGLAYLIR

[17] = target: T6, Tyrosine-protein phosphatase non-receptor type 7 (Homo sapiens, UniProt P35236); experiment: redox-dependent HePTP inhibition, mechanism study, biochemical, fluorescence (AID 2068); assay type: functional
T6 sequence (P35236 whole entry): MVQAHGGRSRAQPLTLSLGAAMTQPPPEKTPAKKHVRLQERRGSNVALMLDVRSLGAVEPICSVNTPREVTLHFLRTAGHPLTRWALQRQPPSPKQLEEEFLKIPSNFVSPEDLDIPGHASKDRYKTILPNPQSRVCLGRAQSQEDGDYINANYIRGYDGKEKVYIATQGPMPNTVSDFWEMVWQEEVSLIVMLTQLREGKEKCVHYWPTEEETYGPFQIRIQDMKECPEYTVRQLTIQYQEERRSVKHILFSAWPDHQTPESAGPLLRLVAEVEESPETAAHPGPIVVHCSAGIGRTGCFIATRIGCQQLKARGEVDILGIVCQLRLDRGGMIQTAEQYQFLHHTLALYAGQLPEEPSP

[18] = target: T7, Coagulation factor XII (Homo sapiens, UniProt P00748); assay type: functional;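 note: activated factor XIIa alpha cleaving a fluorogenic AMC peptide substrate; inhibitor potency from loss of enzyme activity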
T7 sequence (P00748 whole entry): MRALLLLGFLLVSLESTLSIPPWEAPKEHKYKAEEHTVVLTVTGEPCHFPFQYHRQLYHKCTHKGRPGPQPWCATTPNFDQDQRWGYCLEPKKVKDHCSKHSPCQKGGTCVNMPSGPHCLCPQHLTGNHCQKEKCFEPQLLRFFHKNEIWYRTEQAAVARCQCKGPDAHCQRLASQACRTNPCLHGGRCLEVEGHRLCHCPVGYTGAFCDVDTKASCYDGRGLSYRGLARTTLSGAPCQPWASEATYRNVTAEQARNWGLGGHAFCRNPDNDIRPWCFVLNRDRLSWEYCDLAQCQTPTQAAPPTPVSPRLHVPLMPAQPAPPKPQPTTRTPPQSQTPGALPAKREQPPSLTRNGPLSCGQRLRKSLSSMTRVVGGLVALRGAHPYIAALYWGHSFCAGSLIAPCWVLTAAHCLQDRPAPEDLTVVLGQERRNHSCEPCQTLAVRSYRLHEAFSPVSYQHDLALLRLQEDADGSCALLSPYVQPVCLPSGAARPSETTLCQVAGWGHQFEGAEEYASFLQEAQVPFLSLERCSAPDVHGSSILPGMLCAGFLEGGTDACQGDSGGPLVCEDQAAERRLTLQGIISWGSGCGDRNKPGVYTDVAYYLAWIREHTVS

[19] = target: Genome polyprotein (dengue virus type 2, UniProt P29990); experiment: Dengue-2 NS5 methyltransferase inhibitors, primary screen, biochemical, confirmation dose response (AID 588689); assay type: functional
[20] = inhibitors of Bluetongue virus cytopathic effect, confirmation, arbovirus, BSR cells (AID 1250); assay type: functional;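 note: protection from viral cytopathic effect measured as cell viability by ATP luminescence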
[21] = cells
[22] = target: Acyl-homoserine lactone acylase PvdQ (Pseudomonas aeruginosa (strain LESB58), UniProt Q9I194); experiment: P. aeruginosa PvdQ acylase inhibitors, dose response, biochemical, fluorescence, plate reader and imaging, cherry-picks (AID 493231)
Chain of Acyl-homoserine lactone acylase PvdQ (Q9I194 24-193 limits assumed): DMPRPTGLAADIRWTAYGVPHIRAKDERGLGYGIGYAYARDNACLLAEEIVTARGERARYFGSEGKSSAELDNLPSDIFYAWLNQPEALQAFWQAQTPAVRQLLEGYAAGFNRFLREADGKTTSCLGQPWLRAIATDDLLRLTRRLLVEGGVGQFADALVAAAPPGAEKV
Chain of Acyl-homoserine lactone acylase PvdQ (Q9I194 217-762 limits assumed): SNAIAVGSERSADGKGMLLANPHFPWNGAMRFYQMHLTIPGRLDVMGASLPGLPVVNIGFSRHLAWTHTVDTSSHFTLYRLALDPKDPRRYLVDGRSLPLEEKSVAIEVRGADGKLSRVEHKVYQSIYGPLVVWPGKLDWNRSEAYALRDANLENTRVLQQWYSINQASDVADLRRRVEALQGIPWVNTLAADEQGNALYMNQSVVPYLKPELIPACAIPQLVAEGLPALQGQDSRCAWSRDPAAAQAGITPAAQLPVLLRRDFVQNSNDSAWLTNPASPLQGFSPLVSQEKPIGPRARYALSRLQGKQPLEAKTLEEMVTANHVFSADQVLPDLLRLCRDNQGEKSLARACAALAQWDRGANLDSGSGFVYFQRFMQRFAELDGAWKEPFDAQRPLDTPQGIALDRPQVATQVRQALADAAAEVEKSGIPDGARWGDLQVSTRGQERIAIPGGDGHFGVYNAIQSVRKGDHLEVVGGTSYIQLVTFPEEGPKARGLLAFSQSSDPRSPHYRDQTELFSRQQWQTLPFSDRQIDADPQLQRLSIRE

[23] = cells; assay type: functional
[24] = target: T5, Estrogen receptor beta
[25] = target: Ephrin type-A receptor 4 (Mus musculus, UniProt Q03137); experiment: inhibitors of EphA4 binding to KYL peptide, primary screen, biochemical, colorimetric, mouse EphA4 (AID 689); assay type: functional
[26] = target: Protein Tat (Human immunodeficiency virus type 1 group M subtype B (isolate HXB2)(HIV-1), UniProt P04608); assay type: functional;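 note: tat binding to TAR RNA read out by fluorescence polarization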
Chain of Protein Tat (P04608 whole entry): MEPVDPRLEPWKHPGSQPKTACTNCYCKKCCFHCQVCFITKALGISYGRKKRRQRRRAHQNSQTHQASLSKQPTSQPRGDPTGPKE

[27] = THP-1 cell cytotoxicity, dose response, cytotoxicity control for Vif-APOBEC3G degradation inhibitor project, THP-1 cells (AID 1117359); assay type: functional; conditions: Human immunodeficiency virus 1, THP-1

Cn1c(SCC(=O)Nc2sccc2C#N)nnc1-c1ccccc1
IC50 [1]: 17.1 µM (active)

CCC1(c2ccc(F)cc2)NC(=O)N(CC(=O)Nc2ccc(-c3nc4ccc(C)cc4s3)cc2)C1=O (centres undefined)
CC50 [2]: 15.5 µM (active)
EC50 [3]: 7.37 µM (active)
EC50 [4]: 12.3 µM (active)
Absolute IC50 (XBP1) [5]: 10 µM
AC50 [6]: 8.98 µM (active)

Nc1nc2ccccc2n1C(=O)Cc1ccccc1
IC50 [7]: > 20 µM (inactive)
IC50 [8]: > 20 µM (inactive)
IC50 [9]: > 20 µM (inactive)
IC50 [10]: > 20 µM (inactive)

O=C(Nc1ccc(Cl)c(Cl)c1)Nn1cnnc1
IC50 [11]: 837 nM (active)
IC50 [12]: > 59.6 µM (not active)

c1coc(-c2nc3ccccc3nc2-c2ccco2)c1
EC50 [13]: 21.6 µM (active)
EC50 [14]: 12 µM (active)
IC50 [15]: < 0.023 µM (not active)
IC50 [16]: < 400 nM (active)
IC50 [17]: 12.4 µM (active)
IC50 [18]: > 50 µM (inactive)
IC50 [19]: > 100 µM (active)

CC(C)C[C@H](NC(=O)c1[nH]cnc1C(=O)N1CCN(C(=O)OC(C)(C)C)CC1)C(=O)OC(C)(C)C
CC50 [2]: 13.3 µM (active)
IC50 [20]: 34.8 µM (active)
IC50 [21]: 1.43 µM (active)

CCOC1=CC(=O)OC(c2ccccc2)C1 (centres undefined)
AC50 [22]: 3.54 µM (active)

O=C(Nc1cccc(C(F)(F)F)c1)Nn1cnnc1
IC50 [11]: 2320 nM (active)
IC50 [12]: > 59.6 µM (not active)

O=C(OCc1ccc(Cl)c(Cl)c1)c1ccccn1
AC50 [22]: 29.3 µM (active)
IC50 [23]: 16.9 µM (active)

COc1ccc(C(=O)Nc2nc3ccccc3n2Cc2ccc(Cl)cc2)cc1
IC50 [7]: > 20 µM (inactive)
IC50 [8]: > 20 µM (inactive)
IC50 [9]: > 20 µM (inactive)
IC50 [10]: > 20 µM (inactive)

Cc1onc(-c2c(F)cccc2Cl)c1C(=O)OCC(=O)NCc1ccco1
IC50 [1]: 38.6 µM (not active)

CCCSC1=N/C(=C\C=C\c2ccco2)C(=O)S1
IC50 [24]: 9.71 µM (active)
IC50 [15]: > 50 µM (not active)
IC50 [25]: 11.9 µM (active)
IC50 [16]: 3970 nM (active)
IC50 [26]: 3.05 µM (inconclusive)
CC50 [27]: > 40 µM (active)

CCCCCc1c(C)nc(Nc2ccccc2)nc1O
Absolute IC50 (XBP1) [5]: 10 µM
